Laboratory results: US8916592B2, “Malononitrile compounds” (Merial Limited, priority 2005, dated 2014)

Tests used:
Format in all cases: in vivo
[1] = tested on: Mediterranean Fruitfly (Ceratitis capitata); assay: Activity against Mediterranean Fruitfly (eggs sprayed in microtiterplates); conditions: 144 h, 6 days, untreated controls 0% mortality
Protocol: The active compounds were formulated in 1:3 DMSO:water. 50 to 80 eggs were placed into microtiterplates filled with 0.5% agar-agar and 14% diet in water. The eggs were sprayed with 5 μl of the test solution, the plates were sealed with pierced foils and kept at 27-29° C. and 75-85% humidity under fluorescent light for 6 days. Mortality was assessed on the baswas of the agility of the hatched larvae. Tests were replicated 2 times.

[2] = tested on: Boll Weevil (Anthonomus grandis); assay: Activity against Boll Weevil (eggs sprayed in microtiterplates); conditions: 3 to 5 days, untreated controls 0% mortality
Protocol: The active compounds were formulated in 1:3 DMSO:water. 10 to 15 eggs were placed into microtiterplates filled with 2% agar-agar in water and 300 ppm formaline. The eggs were sprayed with 20 μl of the test solution, the plates were sealed with pierced foils and kept at 24-26° C. and 75-85% humidity with a day/night cycle for 3 to 5 days. Mortality was assessed on the basis of the remaining unhatched eggs or larvae on the agar surface and/or quantity and depth of the digging channels caused by the hatched larvae. Tests were replicated 2 times.

[3] = tested on: Vetch Aphid (Megoura viciae); assay: Activity against Vetch Aphid (sprayed bean leaf disks); conditions: foliar, 144 h, adult aphids, 6 days, untreated controls 0% mortality
Protocol: The active compounds were formulated in 1:3 DMSO:water. Bean leaf disks were placed into microtiterplates filled with 0.8% agar-agar and 2.5 ppm OPUS™. The leaf disks were sprayed with 2.5 μl of the test solution and 5 to 8 adult aphids were placed into the microtiterplates which were then closed and kept at 22-24° C. and 35-45% under fluorescent light for 6 days. Mortality was assessed on the basis of vital, reproduced aphids. Tests were replicated 2 times.

[4] = tested on: Brown Planthopper (Nilaparvata lugens); assay: Activity against Brown Planthopper (sprayed rice seedlings); conditions: 300 ppm, 10 adults, recorded after 24, 72 and 120 hours
Protocol: The active compounds were formulated in 50:50 acetone:water. Potted rice seedlings were sprayed with 10 ml test solution, air dried, placed in cages and inoculated with 10 adults. Percent mortality was recorded after 24, 72 and 120 hours.

| Compound | mortality at 2500 ppm [1] [%] | mortality at 2500 ppm [2] [%] | mortality at 2500 ppm [3] [%] | mortality [4] |
| --- | --- | --- | --- | --- |
| N#CC(C#N)(CSC(F)(F)F)Cc1ccc(Cl)c(Cl)c1 [Compound I-1, 2-(3,4-dichloro-benzyl)-2-trifluoromethylsulfanylmethyl-malononitrile] | > 75 | > 75 |  |  |
| N#CC(C#N)(CCSC(F)(F)F)Cc1ccc(Cl)c(Cl)c1 [Compound I-7, 2-(3,4-Dichloro-benzyl)-2-(2-trifluoromethylsulfanyl-ethyl)-malononitrile] | > 75 | > 75 | > 75 |  |
| N#CC(C#N)(CC[S+]([O-])C(F)(F)F)Cc1ccc(Cl)c(Cl)c1 (stereo not shown) [Compound I-15, 2-(3,4-Dichlorobenzyl)-2-(2-trifluoromethanesulfinyl-ethyl)-malononitrile] | > 75 | > 75 |  |  |
| N#CC(C#N)(CCS(=O)(=O)C(F)(F)F)Cc1ccc(Cl)c(Cl)c1 [Compound I-19, 2-(3,4-Dichlorobenzyl)-2-(2-trifluoromethanesulfonyl-ethyl)-malononitrile] | > 75 | > 75 |  |  |
| CC(C)(C)c1cc(CC(C#N)(C#N)CCSC(F)(F)F)on1 [Compound I-35] |  |  |  | over 90% |
